Source: patent US7897602B2, “Indolinone compounds as kinase inhibitors” (Development Center for Biotechnology, priority 2009, dated 2011)

What was measured:
Type in all cases: biochemical
[1] = target: T1, VEGFR2 kinase (Homo sapiens, UniProt P35968); assay: VEGFR2 kinase assay (33P incorporation into Poly(Glu-Tyr)); settings: 500 nM test compound; read-out: Inhibition at 500 nM (%) VEGFr-2
T1 construct: recombinant N-terminal 6×His-tagged VEGFR2 kinase domain construct expressed by baculovirus; 6xHis (N); made in house
T1 sequence (P35968 834-1162 limits assumed): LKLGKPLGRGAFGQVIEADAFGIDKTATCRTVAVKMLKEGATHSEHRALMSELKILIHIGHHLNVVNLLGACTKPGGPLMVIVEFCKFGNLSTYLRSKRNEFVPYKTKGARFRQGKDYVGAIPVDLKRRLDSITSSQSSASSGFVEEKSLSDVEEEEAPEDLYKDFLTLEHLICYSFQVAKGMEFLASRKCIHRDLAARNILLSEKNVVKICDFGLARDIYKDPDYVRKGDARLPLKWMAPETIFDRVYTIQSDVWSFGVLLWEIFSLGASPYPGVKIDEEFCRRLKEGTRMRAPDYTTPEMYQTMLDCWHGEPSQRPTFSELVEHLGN
Procedure: Inhibition of VEGFR2 kinase activity by compounds disclosed herein was quantified by measuring the amount of [^33P] incorporated into the substrate in the presence of a test compound. Specifically, a reaction mixture with a final volume of 25 μL and containing 6.25 ng of VEGFR2 kinase (obtained by purifying recombinant N-terminal 6×His-tagged VEGFR2 kinase domain construct expressed by baculovirus), 5 μg of substrate (Poly (Glu-Tyr, 4:1, Sigma)), kinase reaction buffer (20 mM MOPS pH 7.0, 1 mM EDTA, 5% glycerol, 0.01% Brij-35, 0.1% β-mercaptoethanol, 1 mg/mL BSA, 100 μM ATP, 0.1 μCi per well [^33P]-γ-ATP (2,500-3,000 Ci/mmol), and 500 nM test compound (final concentration of DMSO was 4%) or 4% DMSO alone (as the control sample), was incubated at 30° C. for 30 minutes. The reaction was then stopped by adding 5 μL of 3% phosphoric acid solution. The resultant solution was transferred to and harvested by a filter plate (UniFilter-96 GF/B, PerkinElmer). The filter plate was then washed 20 times with d.d. H2O for 5 min followed by the addition of 30 μL of MicroScint™-20 Cocktail (PerkinElmer). After the plate was sealed, the retained radioactivity on the filter was counted using a TopCount scintillation detector (PerkinElmer). The percentage of inhibition rate of the test compound was calculated by dividing the retained radioactivity of the test sample with the retained radioactivity of the control sample and shown in Table 3.

[2] = target: T2, c-Met kinase (Homo sapiens, UniProt P08581); assay: c-Met kinase assay (33P incorporation into Poly(Glu-Tyr)); settings: 500 nM test compound
T2 construct: recombinant N-terminal 6×His-tagged c-Met kinase domain construct expressed from baculovirus; 6xHis (N); made in house
T2 sequence (P08581 1078-1345 limits assumed): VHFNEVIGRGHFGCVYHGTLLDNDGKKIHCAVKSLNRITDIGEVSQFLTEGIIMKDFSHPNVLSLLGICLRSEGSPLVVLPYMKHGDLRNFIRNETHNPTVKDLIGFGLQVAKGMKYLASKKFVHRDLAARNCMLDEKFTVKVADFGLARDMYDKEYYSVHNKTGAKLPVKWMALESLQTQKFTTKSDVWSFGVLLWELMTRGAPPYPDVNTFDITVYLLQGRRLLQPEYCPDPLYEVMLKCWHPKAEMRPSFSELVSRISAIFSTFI
In short: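 Recombinant N-terminal 6×His-tagged c-Met kinase domain (baculovirus-expressed, 5 ng) acted on Poly(Glu-Tyr) 4:1 with 100 μM ATP plus [33P]-γ-ATP in MOPS pH 7.0 buffer, 30 min at 30° C. Compound was at 500 nM. Filter-retained radioactivity was compared with the DMSO control to give percent inhibition.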

[3] = target: T3, Flt3 kinase (Homo sapiens, UniProt P36888); assay: Flt3 kinase assay (33P incorporation into Poly(Glu-Tyr)); settings: 100 nM test compound; read-out: Inhibition at 100 nM (%) Flt-3
T3 construct: recombinant N-terminal 6×His-tagged Flt3 kinase domain construct expressed from baculovirus; 6xHis (N); made in house
T3 sequence (P36888 610-943 limits assumed): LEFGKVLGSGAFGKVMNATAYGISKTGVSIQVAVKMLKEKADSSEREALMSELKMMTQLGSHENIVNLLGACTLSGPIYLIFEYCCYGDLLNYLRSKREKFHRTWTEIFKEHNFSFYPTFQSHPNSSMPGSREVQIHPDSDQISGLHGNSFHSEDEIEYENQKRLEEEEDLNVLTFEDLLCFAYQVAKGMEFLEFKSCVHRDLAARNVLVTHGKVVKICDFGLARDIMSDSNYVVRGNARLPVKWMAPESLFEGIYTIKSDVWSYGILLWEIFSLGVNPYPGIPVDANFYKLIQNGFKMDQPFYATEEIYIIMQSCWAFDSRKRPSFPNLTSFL
Procedure: Inhibition of Flt3 kinase activity by compounds disclosed herein was quantified by measuring the amount of [^33P] incorporated into the substrate in the presence of a test compound. Briefly, a reaction mixture of 25 μL final volume containing 5 ng of Flt3 kinase (obtained by purifying recombinant N-terminal 6×His-tagged Flt3 kinase domain construct expressed from baculovirus), 5 μg of the substrate (Poly (Glu-Tyr, 4:1, Sigma)), kinase reaction buffer (20 mM MOPS pH 7.0, 1 mM EDTA, 5% glycerol, 0.01% Brij-35, 0.1% β-mercaptoethanol, 1 mg/mL BSA, 100 μM ATP, 0.1 μCi per well [^33P]-γ-ATP (2,500-3,000 Ci/mmol)), and a test compound (100 nM, diluted with 4% DMSO) or DMSO (as the control) was incubated at 30° C. for 30 minutes. The reaction was stopped by adding 5 μL of 3% phosphoric acid solution. The resultant reaction solution was then harvested onto a filter plate (UniFilter-96 GF/B, PerkinElmer), washed 20 times for 5 min with d.d. H2O, and followed by the addition of 30 μL of MicroScint™-20 Cocktail (PerkinElmer). The plate was then sealed and counted using a TopCount scintillation detector (PerkinElmer). The percentage of inhibition rate of the test compound was calculated by dividing the retained radioactivity of the test sample with the retained radioactivity of the control sample and shown in Table 3.

Compound | inhibition at 0.5 µM [1] | inhibition at 0.5 µM [2] | inhibition at 0.1 µM [3]
O=C(O)CCc1c(/C=C2\C(=O)Nc3ccc(S(=O)(=O)Cc4c(Cl)cccc4Cl)cc32)[nH]c2c1C(=O)CCC2 [DCB-70073, (Z)-5-(2,6-dichlorobenzylsulfonyl)-3-((3-carboxyethyl-4-oxo-4,5,6,7-tetrahydro-1H-indol-2-yl)methylene)indolin-2-one] | 71.3% | 91.6% | 1.4%
O=C(O)CCc1c(/C=C2\C(=O)Nc3cc(-c4ccc(O)cc4)ccc32)[nH]c2c1C(=O)CCC2 [DCB-70075, (Z)-6-(4-hydroxyphenyl)-3-((3-carboxyethyl-4-oxo-4,5,6,7-tetrahydro-1H-indol-2-yl)methylene)indolin-2-one] | 99.6% | 21.8% | 63.5%
O=C(O)CCc1c(/C=C2\C(=O)Nc3ccc(NC(=O)c4ccc(F)cc4)cc32)[nH]c2c1C(=O)CCC2 [DCB-70076, (Z)-5-(4-fluorobenzamido)-3-((3-carboxyethyl-4-oxo-4,5,6,7-tetrahydro-1H-indol-2-yl)methylene)indolin-2-one] | 59.8% | 21.8% | -3.1%
O=C(O)CCc1c(/C=C2\C(=O)Nc3cc(-c4ccc(O)c(O)c4)ccc32)[nH]c2c1C(=O)CCC2 [DCB-70078, (Z)-6-(3,4-dihydroxyphenyl)-3-((3-carboxyethyl-4-oxo-4,5,6,7-tetrahydro-1H-indol-2-yl)methylene)indolin-2-one] | 98.9% | -54.1% | 75%
O=C(O)CCc1c(/C=C2\C(=O)Nc3cc(-c4cc5ccccc5s4)ccc32)[nH]c2c1C(=O)CCC2 [DCB-70080, (Z)-6-(benzo[b]thiophen-2-yl)-3-((3-carboxyethyl-4-oxo-4,5,6,7-tetrahydro-1H-indol-2-yl)methylene)indolin-2-one] | 76.9% | -21.3% | 7.4%
CCOC(=O)CCc1c(/C=C2\C(=O)Nc3cc(-c4ccc(O)c(OC)c4)ccc32)[nH]c2c1C(=O)CCC2 [DCB-70081, (Z)-6-(4-hydroxy-3-methoxyphenyl)-3-((3-(3-ethoxy-3-oxopropyl)-4-oxo-4,5,6,7-tetrahydro-1H-indol-2-yl)methylene)indolin-2-one] | 80% | 25.6% | 30%

Other lines, results leading:

inhibition at 0.5 µM [1] | inhibition at 0.5 µM [2] | inhibition at 0.1 µM [3] | Compound
86% | 62.8% | -2.1% | O=C(O)CCc1c(/C=C2\C(=O)Nc3ccc(S(=O)(=O)Cc4ccc(F)cc4)cc32)[nH]c2c1C(=O)CCC2 [DCB-70072, (Z)-5-(4-fluorobenzylsulfonyl)-3-((3-carboxyethyl-4-oxo-4,5,6,7-tetrahydro-1H-indol-2-yl)methylene)indolin-2-one]
25% | 21.5% | -1.3% | CCOC(=O)CCc1c(/C=C2\C(=O)Nc3ccc(NC(=O)c4ccc(F)cc4)cc32)[nH]c2c1C(=O)CCC2 [DCB-70074, (Z)-5-(4-fluorobenzamido)-3-((3-(3-ethoxy-3-oxopropyl)-4-oxo-4,5,6,7-tetrahydro-1H-indol-2-yl)methylene)indolin-2-one]
89.7% | 4.1% | 58.4% | CCOC(=O)CCc1c(/C=C2\C(=O)Nc3cc(-c4ccc(O)c(O)c4)ccc32)[nH]c2c1C(=O)CCC2 [DCB-70077, (Z)-6-(3,4-dihydroxyphenyl)-3-((3-(3-ethoxy-3-oxopropyl)-4-oxo-4,5,6,7-tetrahydro-1H-indol-2-yl)methylene)indolin-2-one]
15.6% | 21.4% | 1.1% | CCOC(=O)CCc1c(/C=C2\C(=O)Nc3cc(-c4cc5ccccc5s4)ccc32)[nH]c2c1C(=O)CCC2 [DCB-70079, (Z)-6-(benzo[b]thiophen-2-yl)-3-((3-(3-ethoxy-3-oxopropyl)-4-oxo-4,5,6,7-tetrahydro-1H-indol-2-yl)methylene)indolin-2-one]
